Where two headings read alike, the source gives them in different places.
What was measured:
[1] = cited from earlier work
Method: The difference in detectable time in the urine can be explained by the low level of internal exposure (amatoxins in the blood). […] The daily amounts of peptide toxins excreted in urine in beagles without biliary drainage(mg). Time after α-Amanitin β-Amanitin Phallacidin ingestion 20 mg/kg 60 mg/kg 20 mg/kg 60 mg/kg 20 mg/kg 60 mg/kg group group group group group group 0-1d 0.0379 0.0593 0.0156 0.0251 0.0035 0.0088 (97.9%) (92.8%) (99.9%) (94.7%) (94.2%) (76%) 1-2d 0.0388 0.0618 0.01567 0.0255 0.0037 0.0110 (99.995%) (97.5%) (100%) (96.2%) (100%) (93%) 2-3d 0.0002 0.0626 0 0.0260 0 0.0115 (100%) (99.4%) (100%) (98.2%) (100%) (97.3%) 3-4d 0 0.063 ...

[2] = Peptide toxins in the urine of beagles with biliary drainage; format: in vivo, beagle dogs; conditions: for Total (accumulated) amount excreted in urine / percentage of total urine excretion, Total: 0–4 days
Method: The study was approved by National Institute of Occupational Health and Poison Control review board for animal experiments. Twenty-four male beagles (age, 8–10 months; weight, 10 ± 1 kg) were obtained from Beijing Institute of Xieerxin Biology Resource (Beijing, China). They were randomly divided into four groups of six animals each: control, biliary drainage, and 20 and 60 mg/kg with biliary drainage groups. The biliary drainage operation was conducted in all groups barring the control group. The dogs were dressed in homemade underwear, coats, and Elizabeth circles for a week to ensure pre-experimental acclimatization (Figure S8a–c). After determining the baseline values for biochemical indicators, the dogs were fasted for 24 h but received water ad libitum. They were anesthetized by intravenous administration of pentobarbital sodium (3%, 1 mL/kg) during the surgery. A temperature of 38–39 °C was maintained with a warming mat. After skin preservation and sterilization, the abdominal cavity was opened through the central abdomen. The abdomen was explored and blunt dissection of the common bile duct was performed (Figure S8d). The common bile duct and its branches were ligated from the intestinal side. A 7.0-Fr drainage catheter (COOK, Bloomington, IN, USA) was percutaneously inserted into the gallbladder, and a medical drainage bag was connected to the drainage catheter coming out of the abdominal cavity. Each opened layer, including the peritoneum, abdominal wall muscle, and skin, was closed with suture. The operative incision was protected with sterile gauze and a bandage, and the dogs were dressed in homemade underwear, coats, and Elizabeth circles. The drainage bag was placed in the pocket of the coat (Figure S8e). After the anesthetic wore off, the dogs were placed in cages, and food and water were provided ad libitum. The operative incision was sterilized with iodophor twice a day until stitches were removed six days after surgery. The drainage bag was replaced every day. On the eighth day after surgery, the 20 and 60 mg/kg with biliary drainage groups were orally administered a lyophilized powder of Amanita exitialis in starch capsules. In control and bile drainage group, the beagle dogs were fed with empty capsules. Immediately after dosing, the animals were placed in their cages, and food and water were provided ad libitum. Dogs were sacrificed with an overdose of sodium pentobarbital at the end of the experiment. All procedures were performed according to the ethical standards of the National Institutes of Health Guide for Animal Welfare and approved by the Institutional Animal Care and Use Committee (EAWE-2017-005).
Peptide toxins in blood and urine samples were analyzed as described previously. Bile samples from Days 0–1, Days 1–2, Days 2–3, and Days 3–4 were collected and stored in medical drainage bags and the bile volume was recorded. Plasma and urine samples were stored at 2–8 °C until analysis for peptide toxins.
UPLC and MS/MS parameters were as described in our previous study. The limit of detection and limit of quantitation of each toxin in the bile were 0.03 mg/kg and 0.5 mg/kg, respectively.

[3] = 20 mg/kg with biliary drainage group
[4] = 60 mg/kg with biliary drainage group
[5] = 1–2 days, 20 mg/kg with biliary drainage group
[6] = 1–2 days, 60 mg/kg with biliary drainage group
[7] = 2–3 days, 20 mg/kg with biliary drainage group
[8] = 2–3 days, 60 mg/kg with biliary drainage group
[9] = 3-4d, 20 mg/kg with biliary drainage group
[10] = 3-4d, 60 mg/kg with biliary drainage group
[11] = 3–4 days, 20 mg/kg with biliary drainage group
[12] = 3–4 days, 60 mg/kg with biliary drainage group

CC[C@H](C)[C@@H]1NC(=O)CNC(=O)[C@@H]2Cc3c([nH]c4cc(O)ccc34)[S@+]([O-])C[C@H](NC(=O)CNC1=O)C(=O)N[C@@H](CC(N)=O)C(=O)N1C[C@H](O)C[C@H]1C(=O)N[C@@H]([C@@H](C)[C@@H](O)CO)C(=O)N2 [α-amanitin]
daily amount excreted in urine, without biliary drainage ([1]; 0-1d, 20 mg/kg group): 0.0379 mg
percentage in parentheses, urine, without biliary drainage ([1]; 0-1d, 20 mg/kg group): 97.9%
daily amount excreted in urine, without biliary drainage ([1]; 0-1d, 60 mg/kg group): 0.0593 mg
percentage in parentheses, urine, without biliary drainage ([1]; 0-1d, 60 mg/kg group): 92.8%
Accumulative amount excreted in urine, without biliary drainage ([1]; 20 mg/kg group): 0.039 mg
percentage in parentheses, Accumulative amount, urine, without biliary drainage ([1]; 20 mg/kg group): 100%
Accumulative amount excreted in urine, without biliary drainage ([1]; 20 mg/kg group, listed as α-Amanitin): 0.0390 mg
Accumulative amount excreted in urine, without biliary drainage ([1]; 60 mg/kg group): 0.0630 mg
percentage in parentheses, Accumulative amount, urine, without biliary drainage ([1]; 60 mg/kg group): 100%
percentage in parentheses, urine, without biliary drainage ([1]; 1-2d, 20 mg/kg group): 99.995%
daily amount excreted in urine, without biliary drainage ([1]; 1-2d, 60 mg/kg group): 0.0618 mg
percentage in parentheses, urine, without biliary drainage ([1]; 1-2d, 60 mg/kg group): 97.5%
daily amount excreted in urine, without biliary drainage ([1]; 2-3d, 20 mg/kg group): 0.0002 mg
percentage in parentheses, urine, without biliary drainage ([1]; 2-3d, 20 mg/kg group): 100%
daily amount excreted in urine, without biliary drainage ([1]; 2-3d, 60 mg/kg group): 0.0626 mg
percentage in parentheses, urine, without biliary drainage ([1]; 2-3d, 60 mg/kg group): 99.4%
daily amount excreted in urine, without biliary drainage ([1]; 3-4d, 20 mg/kg group): 0 mg
percentage in parentheses, urine, without biliary drainage ([1]; 3-4d, 20 mg/kg group): 100%
daily amount excreted in urine, without biliary drainage ([1]; 3-4d, 60 mg/kg group): 0.0630 mg
percentage in parentheses, urine, without biliary drainage ([1]; 3-4d, 60 mg/kg group): 100%
detection rate of peptide toxins in urine ([2]; 0-1 d, 60 mg/kg with biliary drainage group): 100%
daily amount excreted in urine ([2]; 0–1 days, 20 mg/kg with biliary drainage group): 0.0147 mg
percentage of total urine excretion excreted daily ([2]; 0–1 days, 20 mg/kg with biliary drainage group, 20 mg/kg): more than 90%
percentage of total urine excretion excreted daily ([2]; 0–1 days, 20 mg/kg with biliary drainage group, listed as α-Amanitin, 20 mg/kg): 96.3%
daily amount excreted in urine ([2]; 0–1 days, 60 mg/kg with biliary drainage group): 0.0213 mg
percentage of total urine excretion excreted daily ([2]; 0–1 days, 60 mg/kg with biliary drainage group, 60 mg/kg): more than 90%
percentage of total urine excretion excreted daily ([2]; 0–1 days, 60 mg/kg with biliary drainage group, listed as α-Amanitin, 60 mg/kg): 90.9%
Total (accumulated) amount excreted in urine [2, 3]: 0.0151 mg
percentage of total urine excretion, Total [2, 3]: 100%
Total (accumulated) amount excreted in urine [2, 4]: 0.0222 mg
percentage of total urine excretion, Total [2, 4]: 100%
time within which toxin was detected in urine [2, 3]: two
time within which toxin was detected in urine [2, 4]: three
detection rate of peptide toxins in urine ([2]; 1-2 d, 20 mg/kg with biliary drainage group): 100%
detection rate of peptide toxins in urine ([2]; 1-2 d, 60 mg/kg with biliary drainage group): 100%
daily amount excreted in urine [2, 5]: 0.0004 mg
percentage of total urine excretion excreted daily [2, 5]: 3.7%
daily amount excreted in urine [2, 6]: 0.0007 mg
percentage of total urine excretion excreted daily [2, 6]: 8.9%
detection rate of peptide toxins in urine ([2]; 2-3 d, 20 mg/kg with biliary drainage group): 0%
toxin content in urine ([2]; 2-3d, 20 mg/kg with biliary drainage group, mean ± SD): 0 µg/L
detection rate of peptide toxins in urine ([2]; 2-3 d, 60 mg/kg with biliary drainage group): 50%
daily amount excreted in urine [2, 7]: 0(0%) mg
percentage of total urine excretion excreted daily [2, 7]: 0(0%)
daily amount excreted in urine [2, 8]: 0.0001 mg
percentage of total urine excretion excreted daily [2, 8]: 0.2%
detection rate of peptide toxins in urine [2, 9]: 0%
toxin content in urine [2, 9]: 0 µg/L
detection rate of peptide toxins in urine [2, 10]: 0%
toxin content in urine [2, 10]: 0 µg/L
daily amount excreted in urine [2, 11]: 0(0%) mg
percentage of total urine excretion excreted daily [2, 11]: 0(0%)
daily amount excreted in urine [2, 12]: 0(0%) mg
percentage of total urine excretion excreted daily [2, 12]: 0(0%)
share of total urine excretion in the 0–2-day urine ([2]; beagles with biliary drainage, both dose groups): more than 95%
